Laboratory results as given in patent US20190224243A1 (MUSC Foundation for Research Development, priority 2018, published 2019).
Ends that are not written are not given here.

What was measured:
animal model for ILD = conditions: cited from earlier work
SSc AT MSCs = assay: adipocyte induction of SSc AT MSCs ± CSD or scrambled peptide (IHC for ASMA and FABP4); assay type: cell-based, human; conditions: treatment during adipocyte induction
Experimental: MSCs from healthy and SSc donors were treated with adipocyte induction medium (AIM), from Lonza to induce adipogenesis.
(§1) Adipogenic differentiation was induced by incubating cells for 3 cycles of 3 days in Adipocyte Induction Medium (Lonza) plus 1 day in Maintenance Medium. Adipogenic differentiation was analyzed by IHC and/or Western blotting using appropriate antibodies and by staining with an Oil Red 0 kit (Biovision) according to the manufacturer's instructions.

TGFβ-activated monocytes = assay: monocyte migration toward SDF-1; assay type: cell-based, human
Experimental: Migration experiments were performed using TGFβ-activated monocytes and 100 ng/ml of the chemokine SDF-1 as chemoattractant (Tourkina et al., 2011, Fibrogenesis Tissue Repair, 4:15). Cells were treated with the indicated concentrations of the indicated peptides. Cells that had migrated were counted in six high power fields per filter. Migration is expressed in terms of “Inhibition of Migration”. Each experiment included Control monocytes and the same monocytes treated with TGFβ which enhanced their rate of migration approximately three-fold. […] Intermediate degrees of inhibition were quantified on a linear basis.
To study the structure-activity relationship of CSD to identify an optimal version to be developed for treating fibrotic diseases in human patients, subdomains of CSD were tested for their ability to inhibit the migration of human monocytes. Monocytes from healthy subjects were used which, when activated using TGFβ, migrate at an enhanced rate similar to monocytes from SSc patients (Tourkina et al., 2011, Fibrogenesis Tissue Repair, 4:15).

[1] = test system: Healthy AT MSCs differentiated into adipocytes; assay: Healthy AT MSCs already differentiated into adipocytes, then treated ± TGFβ ± CSD, Western blotting; assay type: cell-based, human
Experimental: To induce MSCs or adipocytes into a profibrotic phenotype, the cells were cultured in the presence of TGFβ.
as §1
MSC cultures were rinsed with PBS. Lysis Buffer (20 mM Tris-HCl (pH 7.5)/1% NP-40/100 mM NaCl/5 mM EDTA/2 mM KCl) supplemented with 1 mM phenylmethylsulfonyl fluoride, protease inhibitor mixture Set V (Calbiochem), and phosphatase inhibitors (10 mM sodium pyrophosphate, 5 mM NaF, 10 mM beta-glycerophosphate, and 10 mM sodium orthovanadate) was added to the plates, the cells scraped into the buffer, frozen, thawed, and the extract clarified by centrifugation (10 min, 12,000 rpm, RT). The protein content of the supernatants was determined, sample buffer added, and the samples were boiled. 5 to 40 μg of protein was loaded per lane depending on the avidity of the primary antibody to be used for detection.

mice = mice receiving CSD treatment; cited from earlier work
bleomycin-treated mice [2] = assay: bleomycin minipump mouse model, skin fibrosis (dermal thickness, FABP4 IHC); assay type: in vivo, C57BL/6 mice
Excerpt: (§2) To create a mouse model for autologous MSC treatment, adipose-derived MSCs were isolated from C57/BL6 mice treated with bleomycin, expanded in vitro, then injected systemically via the retro-orbital sinus or subcutaneously into host C57/BL6 mice that had been treated with bleomycin.
The Pump Model (Lee R. et al., 2014, Am. J. Physio. Lung Cell. Mol. Physio. 306:L736-748) is used both to generate MSC donors and host mice receiving MSC therapy. Briefly; under isoflurane anesthesia, mini-osmotic pumps (ALZET 1007D; DURECT Corporation, Cupertino, Calif.) containing 100 μl of bleomycin (67 U/kg) or saline are implanted posterior to the scapulae of 8-10 week old C57BL/6 mice. […]
On day 24, under anesthesia the rib cage was opened, mice systemically perfused via the left ventricle with PBS, then further perfused with Z-Fix (Anatech). […] Lung tissue morphology was evaluated by the Ashcroft Method (Ashcroft T. et al., 1988, J. Clin. Pathol. 41:467-470). Skin tissue morphology was evaluated in terms of the thickness of the dermis and the subdermal adipose layer. Tissue sections were also analyzed by IHC using routine methods (Lee R. et al., 2014, Am. J. Physio. Lung Cell. Mol. Physio. 306:L736-748; Lee R. et al., 2014, Frontiers in Pharma. 5:140; Lee R. et al., 2015, Fibrogen. Tissue Repair, 8:11) and appropriate antibodies.

bleomycin-treated mice [3] = assay: bleomycin minipump mouse model, lung fibrosis (Ashcroft score, ASMA and HSP47 IHC); assay type: in vivo, C57BL/6 mice
Excerpt: as §2
The Pump Model (Lee R. et al., 2014, Am. J. Physio. Lung Cell. Mol. Physio. 306:L736-748) is used both to generate MSC donors and host mice receiving MSC therapy. Briefly; under isoflurane anesthesia, mini-osmotic pumps (ALZET 1007D; DURECT Corporation, Cupertino, Calif.) containing 100 μl of bleomycin (67 U/kg) or saline are implanted posterior to the scapulae of 8-10 week old C57BL/6 mice. Pumps deliver 0.5 μl/h for 7 days, then are removed by day 10 per the manufacturer's instructions.
Mice were treated with bleomycin or vehicle using osmotic minipumps (Lee et al., 2014, Am J Physiol Lung Cell Mol Physiol, 306:L736-L748). […] Tissue morphology was quantified by the Ashcroft Method (Ashcroft et al., 1988, J Clin Pathol, 41:467-70). […]
On day 24, under anesthesia the rib cage was opened, mice systemically perfused via the left ventricle with PBS, then further perfused with Z-Fix (Anatech). […] Lung tissue morphology was evaluated by the Ashcroft Method (Ashcroft T. et al., 1988, J. Clin. Pathol. 41:467-470). Skin tissue morphology was evaluated in terms of the thickness of the dermis and the subdermal adipose layer. […]

Healthy AT MSCs = assay: ASMA staining (IHC) of Healthy AT MSCs treated with CSD, scrambled CSD and TGFβ; assay type: cell-based, human
Excerpt: Human MSCs were derived from abdominal fat tissue. SSc ILD and SSc No ILD MSCs are a generous gift from Dr. Del Papa (Milan, Italy). Healthy human MSCs are from Dr. Del Papa and from Lonza. Human MSCs were maintained in the medium previously described (Capelli C. et al., 2017, Cell Transplant. 26:841-854). Early passage cells (passage 1 to 3) were used in all experiments except when late passage cells (passage 5) were specifically used in FIG. 1F.
To induce fibrogenic differentiation in healthy human and mouse MSCs, cells were incubated for 10 days in Maintenance Medium supplemented with TGFβ (10 ng/ml). To determine the effects of knocking down caveolin-1 expression, healthy MSCs were treated with siRNA targeting caveolin-1 according to the manufacturer's instructions (Dharmacon).

[4] = TGFβ after adipocyte differentiation

Row | Molecule | dose working in inhibiting fibrosis (animal model for ILD) | number of ASMA+ cells (SSc AT MSCs) | number of FABP4+ cells (SSc AT MSCs) | TGFβ-induced migration (TGFβ-activated monocytes; 50 pg/ml peptide) | inhibition of TGFβ-induced migration (TGFβ-activated monocytes; levels as low as 0.005 pg/ml) | effectiveness relative to pirfenidone in inhibiting fibrosis (animal model for ILD) | AKT activation [1, 4] | FABP4 expression [1, 4] | fibrogenic effect of TGFβ: increased ASMA expression [1, 4] | fibrogenic effect of TGFβ: increased Col I expression [1, 4] | p38 activation [1, 4] | PPARγ expression ([1]; differentiated adipocytes) | caveolin-1 expression ([1]; differentiated adipocytes) | share of treated mice with beneficial effect on lung morphology (mice) | loss of the intradermal adipose layer (FABP4 staining) (bleomycin-treated mice [2]) | ASMA levels in the bleomycin-treated lung (bleomycin-treated mice [3]) | enhanced ASMA expression in cells treated with TGFβ (Healthy AT MSCs; healthy MSCs + TGFβ) | baseline expression of ASMA (Healthy AT MSCs; healthy MSCs without TGFβ)
1 | Cc1ccc(=O)n(-c2ccccc2)c1 [pirfenidone, reference compound] | 300 mg/kg/day |  |  |  |  |  |  |  |  |  |  |  |  |  |  |  |  | 
2 | DGIWKASFTTFTVTKYWFYR-NH2 [CSD, caveolin-1 scaffolding domain peptide, amino acids 82-101 of caveolin-1] | 1 mg/kg/day | decreased | increased | decreased essentially to the uninduced level | Substantial inhibition | 300 fold | restored | did not restore | reversed | reversed | inhibited | Neither TGFβ nor CSD affected | Neither TGFβ nor CSD affected | greater than 50% | reversed | greatly decreased | inhibited | inhibited
